From patent US12600709B2, “Nonpeptide somatostatin type 5 receptor agonists and uses thereof” (Crinetics Pharmaceuticals, Inc., priority 2019, dated 2026)
Read-outs that look alike come from different tables or passages of the source.

Tests used:
[1] = biological target: T1, human somatostatin receptor subtype 5 (Homo sapiens, UniProt P35346); assay: cAMP assay for SST5R (inhibition of cAMP in CHO-K1 cells); assay type: cell-based; conditions: for EC50: inhibition of cAMP via human SST5 receptor, read-out: SST5 potency; for Fold selectivity for SST5 vs SST2: class symbols, SST5 receptor over SST2 receptor
T1 construct: expressed in transfected cells
T1 sequence (P35346 whole entry): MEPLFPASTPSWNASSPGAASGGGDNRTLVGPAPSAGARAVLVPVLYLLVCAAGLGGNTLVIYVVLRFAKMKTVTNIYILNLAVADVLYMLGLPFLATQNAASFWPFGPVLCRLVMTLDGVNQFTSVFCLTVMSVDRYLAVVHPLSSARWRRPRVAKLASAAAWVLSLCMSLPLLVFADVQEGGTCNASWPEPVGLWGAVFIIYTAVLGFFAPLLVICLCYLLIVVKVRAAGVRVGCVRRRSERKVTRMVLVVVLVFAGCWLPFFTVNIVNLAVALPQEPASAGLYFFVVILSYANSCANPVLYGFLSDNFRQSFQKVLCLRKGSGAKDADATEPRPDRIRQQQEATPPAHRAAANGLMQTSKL
How it was run: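 CHO-K1 cells stably expressing human SSTR5 were treated 20 min at 37 °C with compounds plus 1.6 μM NKH477 in HBSS, 0.5 mM HEPES pH 7.4, 0.1% BSA, 0.2 mM IBMX. Lysate cAMP measured by HTRF against a standard curve; EC50 from cAMP-versus-concentration plots.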

[2] = biological target: T2, human somatostatin receptor subtype 2 (Homo sapiens, UniProt P30874); assay: cAMP assay for SST2R (inhibition of cAMP in CHO-K1 cells); assay type: cell-based; conditions: Table B; inhibition of cAMP via human SST2 receptor; read-out: SST2 potency
T2 construct: expressed in transfected cells
T2 sequence (P30874 whole entry): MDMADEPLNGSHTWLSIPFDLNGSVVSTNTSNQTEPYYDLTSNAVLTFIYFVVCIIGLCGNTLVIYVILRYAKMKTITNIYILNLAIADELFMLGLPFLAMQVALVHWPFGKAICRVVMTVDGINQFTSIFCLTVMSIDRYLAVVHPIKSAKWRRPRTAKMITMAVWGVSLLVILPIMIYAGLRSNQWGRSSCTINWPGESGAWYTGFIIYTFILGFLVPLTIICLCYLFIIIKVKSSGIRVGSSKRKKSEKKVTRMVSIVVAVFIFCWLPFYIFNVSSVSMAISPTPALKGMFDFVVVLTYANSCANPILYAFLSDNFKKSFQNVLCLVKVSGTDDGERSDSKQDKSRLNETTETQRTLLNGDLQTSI
How it was run: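 CHO-K1 cells stably expressing human SSTR2, plated 4 days prior, treated 20 min at 37° C with 1.6 μM NKH477 plus compound dilutions in HBSS/HEPES pH 7.4/0.1% BSA/0.2 mM IBMX. Lysate cAMP measured by HTRF against standard curve; EC50 from concentration-response.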

Row | SMILES | EC50 ([1]; Table A) | Fold selectivity for SST5 vs SST2 ([1]; Table B) | EC50 ([1]; Table B) | EC50 [2]
1 | C[C@]1(N)CCN(c2c(C(=O)NCc3ncccn3)cnc(C#N)c2-c2cc(F)cc(F)c2)C1 [1-108, 4-[(3S)-3-amino-3-methylpyrrolidin-1-yl]-6-cyano-5-(3,5-difluorophenyl)-N-[(pyrimidin-2-yl)methyl]pyridine-3-carboxamide] | < 10 nM | +++ (+++=>500) | < 10 nM | > 1000 nM
2 | Cc1cccc2[nH]c(-c3cncc(C(=O)N4CC[C@H]5CCCC54)c3N3CC[C@](C)(N)C3)nc12 (stereo partly drawn) [2-37, (3S)-1-{3-[(3aR)-octahydrocyclopenta[b]pyrrole-1-carbonyl]-5-(4-methyl-1H-1,3-benzodiazol-2-yl)pyridin-4-yl}-3-methylpyrrolidin-3-amine] | < 10 nM | ++ (++=100 to 499) | < 10 nM | 100 to 1000 nM
3 | C[C@H](NC(=O)c1cnc(C#N)c(-c2cccc(OC(F)F)c2)c1N1CC[C@](C)(N)C1)C(F)(F)F [1-168, 4-[(3S)-3-amino-3-methylpyrrolidin-1-yl]-6-cyano-5-[3-(difluoromethoxy)phenyl]-N-[(2S)-1,1,1-trifluoropropan-2-yl]pyridine-3-carboxamide] | < 10 nM | +++ (+++=>500) | < 10 nM | 100 to 1000 nM
4 | COc1ncc(C(=O)N[C@@H](C)C(F)(F)F)c(N2CC[C@](C)(N)C2)c1-c1cccc2c1OC(F)(F)O2 [1-184, 4-[(3S)-3-amino-3-methylpyrrolidin-1-yl]-5-(2,2-difluoro-2H-1,3-benzodioxol-4-yl)-6-methoxy-N-[(2S)-1,1,1-trifluoropropan-2-yl]pyridine-3-carboxamide] | < 10 nM | +++ (+++=>500) | < 10 nM | 100 to 1000 nM
5 | CCC(CC)CNC(=O)c1cncc(-c2cc(F)cc(F)c2)c1N1CC[C@](C)(N)C1 [1-58, 4-[(3S)-3-amino-3-methylpyrrolidin-1-yl]-5-(3,5-difluorophenyl)-N-(2-ethylbutyl)pyridine-3-carboxamide] | < 10 nM | +++ (+++=>500) | < 10 nM | 100 to 1000 nM
6 | COc1ncc(C(=O)N[C@@H](C)C2CC2)c(N2CC[C@](C)(N)C2)c1-c1ccnc(C(F)(F)F)c1 [1-166, 4-[(3S)-3-amino-3-methylpyrrolidin-1-yl]-N-[(1S)-1-cyclopropylethyl]-2-methoxy-2′-(trifluoromethyl)-[3,4′-bipyridine]-5-carboxamide] | < 10 nM | +++ (+++=>500) | < 10 nM | > 1000 nM
7 | CCOC(=O)CCCOc1ncc(C(=O)NC2CCC(F)(F)CC2)c(N2CC[C@H](N)C2)c1-c1cc(F)cc(F)c1 [1-202, ethyl 4-({4-[(3S)-3-aminopyrrolidin-1-yl]-5-[(4,4-difluorocyclohexyl)carbamoyl]-3-(3,5-difluorophenyl)pyridin-2-yl}oxy)butanoate] | < 10 nM | +++ (+++=>500) | < 10 nM | > 1000 nM
8 | COc1ncc(C(=O)N[C@@H](C)C(F)(F)F)c(N2CC[C@](C)(N)C2)c1-c1ccc(F)c(Cl)c1 [1-261, 4-[(3S)-3-amino-3-methylpyrrolidin-1-yl]-5-(3-chloro-4-fluorophenyl)-6-methoxy-N-[(2S)-1,1,1-trifluoropropan-2-yl]pyridine-3-carboxamide] | < 10 nM | +++ (+++=>500) | < 10 nM | 100 to 1000 nM
9 | COc1ncc(C(=O)N[C@@H](C)C(F)(F)F)c(N2CC[C@](C)(N)C2)c1-c1cc(F)cc(Cl)c1 [1-228, 4-[(3S)-3-amino-3-methylpyrrolidin-1-yl]-5-(3-chloro-5-fluorophenyl)-6-methoxy-N-[(2S)-1,1,1-trifluoropropan-2-yl]pyridine-3-carboxamide] | < 10 nM | +++ (+++=>500) | < 10 nM | 10 to 100 nM
10 | Cn1nccc1CNC(=O)c1cnc(C#N)c(-c2cc(F)cc(F)c2)c1N1CC[C@](C)(N)C1 [1-104, 4-[(3S)-3-amino-3-methylpyrrolidin-1-yl]-6-cyano-5-(3,5-difluorophenyl)-N-[(1-methyl-1H-pyrazol-5-yl)methyl]pyridine-3-carboxamide] | < 10 nM | +++ (+++=>500) | < 10 nM | > 1000 nM
11 | Cc1ncc(C(=O)N[C@@H](C)C2CC2)c(N2CC[C@](C)(N)C2)c1-c1cc(F)cc(C#N)c1 [1-123, 4-[(3S)-3-amino-3-methylpyrrolidin-1-yl]-5-(3-cyano-5-fluorophenyl)-N-[(1S)-1-cyclopropylethyl]-6-methylpyridine-3-carboxamide] | < 10 nM | +++ (+++=>500) | < 10 nM | 100 to 1000 nM
12 | Cc1ncc(C(=O)N[C@@H](C)C2CC2)c(N2CC[C@](C)(N)C2)c1-c1ccnc(C(F)(F)F)c1 [1-159, 4-[(3S)-3-amino-3-methylpyrrolidin-1-yl]-N-[(1S)-1-cyclopropylethyl]-2-methyl-2′-(trifluoromethyl)-[3,4′-bipyridine]-5-carboxamide] | < 10 nM | +++ (+++=>500) | < 10 nM | > 1000 nM
13 | Cc1ncc(C(=O)N[C@@H](C)C2CC2)c(N2CC[C@](C)(N)C2)c1-c1ccc(F)c(F)c1 [1-288, 4-[(3S)-3-amino-3-methylpyrrolidin-1-yl]-N-[(1S)-1-cyclopropylethyl]-5-(3,4-difluorophenyl)-6-methylpyridine-3-carboxamide] | < 10 nM | +++ (+++=>500) | < 10 nM | 100 to 1000 nM
14 | CC(NC(=O)c1cnc(C#N)c(-c2cc(F)cc(F)c2)c1N1CC[C@H](N)C1)C(F)(F)F (stereo partly drawn) [1-226, 4-[(3S)-3-aminopyrrolidin-1-yl]-6-cyano-5-(3,5-difluorophenyl)-N-(1,1,1-trifluoropropan-2-yl)pyridine-3-carboxamide] | < 10 nM | ++ (++=100 to 499) | < 10 nM | 100 to 1000 nM
15 | Cc1cccc2[nH]c(-c3cncc(C(=O)N4CCC(C5CC5)C4)c3N3CC[C@](C)(N)C3)nc12 (stereo partly drawn) [2-42, (3S)-1-[3-(3-cyclopropylpyrrolidine-1-carbonyl)-5-(4-methyl-1H-1,3-benzodiazol-2-yl)pyridin-4-yl]-3-methylpyrrolidin-3-amine] | < 10 nM | ++ (++=100 to 499) | < 10 nM | 100 to 1000 nM
16 | C[C@H](NC(=O)c1cnc(OCCO)c(-c2cc(F)cc(F)c2)c1N1CC[C@](C)(N)C1)C1CC1 [1-246, 4-[(3S)-3-amino-3-methylpyrrolidin-1-yl]-N-[(1S)-1-cyclopropylethyl]-5-(3,5-difluorophenyl)-6-(2-hydroxyethoxy)pyridine-3-carboxamide] | < 10 nM | +++ (+++=>500) | < 10 nM | 100 to 1000 nM
17 | Cc1cccc2[nH]c(-c3cncc(C(=O)NCC(F)(F)F)c3N3CC[C@](C)(N)C3)nc12 [2-7, 4-[(3S)-3-amino-3-methylpyrrolidin-1-yl]-5-(4-methyl-1H-1,3-benzodiazol-2-yl)-N-(2,2,2-trifluoroethyl)pyridine-3-carboxamide] | < 10 nM | ++ (++=100 to 499) | < 10 nM | 100 to 1000 nM
18 | COc1cc(C#N)cc(-c2c(C(F)(F)F)ncc(C(=O)N[C@@H](C)C3CC3)c2N2CC[C@](C)(N)C2)c1 [1-197, 4-[(3S)-3-amino-3-methylpyrrolidin-1-yl]-5-(3-cyano-5-methoxyphenyl)-N-[(1S)-1-cyclopropylethyl]-6-(trifluoromethyl)pyridine-3-carboxamide] | < 10 nM | +++ (+++=>500) | < 10 nM | 100 to 1000 nM
19 | C[C@H](NC(=O)c1cnc(C#N)c(-c2cc(F)cc(Cl)c2)c1N1CC[C@](C)(N)C1)c1ccccn1 [1-245, 4-[(3S)-3-amino-3-methylpyrrolidin-1-yl]-5-(3-chloro-5-fluorophenyl)-6-cyano-N-[(1 S)-1-(pyridin-2-yl)ethyl]pyridine-3-carboxamide] | < 10 nM | +++ (+++=>500) | < 10 nM | > 1000 nM
20 | N#Cc1ncc(C(=O)NCCCc2ccccc2)c(N2CC[C@H](N)C2)c1-c1cc(F)cc(F)c1 [1-110, 4-[(3S)-3-aminopyrrolidin-1-yl]-6-cyano-5-(3,5-difluorophenyl)-N-(3-phenylpropyl)pyridine-3-carboxamide] | < 10 nM | +++ (+++=>500) | < 10 nM | > 1000 nM
21 | CCOc1ncc(C(=O)N[C@@H](C)C2CC2)c(N2CC[C@](C)(N)C2)c1-c1cc(F)cc(F)c1 [1-176, 4-[(3S)-3-amino-3-methylpyrrolidin-1-yl]-N-[(1S)-1-cyclopropylethyl]-5-(3,5-difluorophenyl)-6-ethoxypyridine-3-carboxamide] | < 10 nM | +++ (+++=>500) | < 10 nM | 100 to 1000 nM
22 | C[C@H](NC(=O)c1cnc(C#N)c(-c2cccc(OC(F)F)c2)c1N1CC[C@](C)(N)C1)C1CC1 [1-120, 4-[(3S)-3-amino-3-methylpyrrolidin-1-yl]-6-cyano-N-[(1S)-1-cyclopropylethyl]-5-[3-(difluoromethoxy)phenyl]pyridine-3-carboxamide] | < 10 nM | +++ (+++=>500) | < 10 nM | 10 to 100 nM
